PubChem BioAssay (NCI)
“And” between values parts separate entries of the source, which are not always exact repeats. Equal values may be shown once.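 How tested: cells in 96-well plates exposed to compound for 48 hours at five concentrations. At the GI50, growth is halved. TGI denotes the concentration required for complete inhibition of growth.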

Key:
Test in all cases: NCI tumour cell line growth inhibition, 48 h
DMS 273 small cell lung = system: DMS 273 small cell lung
DLD-1 colon = system: DLD-1 colon
M19-MEL melanoma = system: M19-MEL melanoma
SNB-78 CNS = system: SNB-78 CNS
KM20L2 colon = system: KM20L2 colon
XF 498 CNS = system: XF 498 CNS
HOP-18 NSCLC = system: HOP-18 NSCLC
RXF-631 renal = system: RXF-631 renal
MDA-N = system: MDA-N

SMILES	TGI (DMS 273 small cell lung)	TGI (DLD-1 colon)	TGI (M19-MEL melanoma)	TGI (SNB-78 CNS)	TGI (KM20L2 colon)	TGI (XF 498 CNS)	TGI (HOP-18 NSCLC)	TGI (MDA-N)	further results
CS(=O)(=O)c1ccc(COP(N)(=O)N(CCCl)CCCl)cc1 (stereo not given)	> 100 µM	> 100 µM	> 100 µM	> 100 µM	> 100 µM	> 100 µM			
COc1ccc(Br)c(CN2CCc3ccccc32)c1OS(=O)(=O)c1ccc(C)cc1		> 100 µM	> 100 µM	> 100 µM		92 µM	> 100 µM		TGI (RXF-631 renal): > 100 µM
O=S(=O)(/N=S(/Nc1ccccc1)C(F)(F)Cl)c1ccccc1 (stereo not given)								> 100 µM	
COc1ccc(-c2cc3ccccc3[nH]c2=O)cc1OC	> 100 µM	> 100 µM	> 100 µM	> 100 µM	> 100 µM	> 100 µM	> 100 µM		
O=C1CC(C2(O)C(=O)Nc3ccc([N+](=O)[O-])cc32)c2ccccc21 (stereo not given)	41.4 µM	> 100 µM	78.7 µM	> 100 µM			> 100 µM		TGI (RXF-631 renal): 31.8 µM
COc1cc(/C=C/C(=O)CC(=O)/C=C/c2cc(OC)c(O)c(OC)c2)cc(OC)c1O								11.2 µM and > 100 µM	GI50 (MDA-N): 16.9 µM
O=c1[nH]c2ccccc2c(O)c1/C=N/C(=S)NC1CCCCC1								> 100 µM	
COC(=O)CC1(O)C=CC(=O)C=C1								20.9 µM	
NC(N)=NC(N)=Nc1ccc(C(=O)O)cc1								> 100 µM	
C=C(C)[C@@H]1CCc2c(O)c(O)c(=O)cc(C)c2C1								> 100 µM	
CN1CCC(c2c(O)cc(O)c3c(=O)cc(-c4ccccc4Cl)oc23)C(O)C1 (stereo not given)		> 100 µM			> 100 µM	0.584 µM	> 100 µM		GI50 (KM20L2 colon): 262 nM
CC1=NN(c2ccccc2)C(=O)C12[C@H](c1ccccc1)C2(C#N)C#N (stereo not given in full)	6.28 µM	4.01 µM	6.41 µM	34 µM	27.3 µM	7.22 µM	20.3 µM		
COc1cc(Cc2c(C)cc(OC)c3[nH]c4ccccc4c23)cc2c1[nH]c1ccccc12	21.6 µM	> 25 µM	> 25 µM	17 µM	10.8 µM	> 25 µM			GI50 (DMS 273 small cell lung): 7.64 µM; GI50 (DLD-1 colon): 8.99 µM; GI50 (M19-MEL melanoma): 9.67 µM; GI50 (KM20L2 colon): 5280 nM; GI50 (XF 498 CNS): 6.03 µM
CCOC(=O)c1sc2c(C(=O)OCC)n3cc(C)cc(C)c3c2c1O	> 100 µM	> 100 µM	> 100 µM	> 100 µM	> 100 µM				
O=C(O)c1c2c(cc3c(=O)c4ccccc4[nH]c13)CCCC2	> 100 µM		> 100 µM	> 100 µM	> 100 µM	> 100 µM	> 100 µM		TGI (RXF-631 renal): > 100 µM
CC1=C(CO)C(=O)O[C@@H]([C@@H](C)[C@H]2CC[C@H]3[C@@H]4C[C@H]5O[C@]56[C@@H](O)C=CC(=O)[C@]6(C)[C@H]4CC[C@]23C)C1	1.53 µM	1.03 µM	3.01 µM		1.47 µM	2.82 µM			
CCCCCCCCCCCNC=O								> 100 µM	
CC(=O)OCC1OC(n2c(=O)[nH]c(=O)c3n[nH]nc32)C(OC(C)=O)C(OC(C)=O)C1OC(C)=O (stereo not given)	> 100 µM	> 100 µM	> 100 µM		> 100 µM	> 100 µM	> 100 µM		
COc1ccc(CSC2=C(C#N)C(=O)NC3(CCCCC3)S2)cc1								57.5 µM	
COc1c(OC)c(OC)c2c(=O)cc(-c3ccc(OC(C)C)cc3)oc2c1OC								> 53.8 µM	
Cc1cc(=O)[nH]c(NNC(C#N)c2ccccc2O)n1 (stereo not given)	> 100 µM	> 100 µM	> 100 µM		> 100 µM		> 100 µM		
O=C1C=CC(=O)c2c1ccc1c3ccccc3n(Cc3ccccc3)c21								54.4 µM	
Cc1cc(Cl)cc2c1NC(=O)C2(O)CC(=O)c1ccc(Br)cc1 (stereo not given)	> 100 µM	> 100 µM	> 55 µM		> 100 µM	76.2 µM			TGI (RXF-631 renal): > 100 µM
CC(C)N(C(=O)C12C3C4C5(C(=O)O)C(C1C35I)C42C(=O)O)C(C)C (stereo not given)	> 100 µM	> 100 µM	> 100 µM	> 100 µM	> 100 µM				TGI (RXF-631 renal): > 100 µM
Brc1cc(C2OCCCO2)ccc1OCc1ccccc1	> 100 µM	> 100 µM	> 100 µM	> 100 µM		> 100 µM			
O=C(O)CSC1=NNC2(C(=O)N1)c1ccccc1-c1ccccc12								> 10 µM	
